Experimental findings from US20160287589A1, “SUBSTITUTED-IMIDAZOPYRIDAZINES” (BAYER PHARMA AKTIENGESELLSCHAFT, priority 2013, published 2016) are described below.

Molecules are shown by their SMILES.

The target in experiment [1] is T1, MKNK1 (Homo sapiens, UniProt Q9BUB5, T385D).
T1 construct: GST (N); purchased Carna Biosciences 02-145; host or cells: insect cells (baculovirus expression system)
As to the kind of experiment: MKNK1 kinase assay (MKNK1 TR-FRET assay). It is filed as biochemical. The note with it: 10 μM ATP, 15 min preincubation. The text has this:
MKNK1-inhibitory activity of compounds of the present invention was quantified employing the MKNK1 TR-FRET assay as described in the following paragraphs.
A recombinant fusion protein of Glutathione-S-Transferase (GST, N-terminally) and human full-lengt MKNK1 (amino acids 1-424 and T344D of accession number BAA 19885.1), expressed in insect cells using baculovirus expression system and purified via glutathione sepharose affinity chromatography, was purchased from Carna Biosciences (product no 02-145) and used as enzyme. As substrate for the kinase reaction the biotinylated peptide biotin-Ahx-IKKRKLTRRKSLKG (C-terminus in amide form) was used which can be purchased e.g. form the company Biosyntan (Berlin-Buch, Germany).
For the assay 50 nL of a 100 fold concentrated solution of the test compound in DMSO was pipetted into a black low volume 384 well microtiter plate (Greiner Bio-One, Frickenhausen, Germany), 2 μL of a solution of MKNK1 in aqueous assay buffer [50 mM HEPES pH 7.5, 5 mM magnesium chloride, 1.0 mM dithiothreitol, 0.005% (v/v) Nonidet-P40 (Sigma)] was added and the mixture was incubated for 15 min at 22° C. to allow pre-binding of the test compounds to the enzyme before the start of the kinase reaction. […] The concentration of MKNK1 was adjusted depending of the activity of the enzyme lot and was chosen appropriate to have the assay in the linear range, typical concentrations were in the range of […]. The reaction was stopped by the addition of 5 μL of a solution of TR-FRET detection reagents (5 nM streptavidine-XL665 [Cisbio Bioassays, Codolet, France] and 1 nM anti-ribosomal protein S6 (pSer236)-antibody from Invitrogen [#44921G] and 1 nM LANCE EU-W1024 labeled ProteinG [Perkin-Elmer, product no. AD0071]) in an aqueous EDTA-solution (100 mM EDTA, 0.1% (w/v) bovine serum albumin in 50 mM HEPES pH 7.5).
(§1) The resulting mixture was incubated for 1 h at 22° C. to allow the formation of complex between the phosphorylated biotinylated peptide and the detection reagents. Subsequently the amount of phosphorylated substrate was evaluated by measurement of the resonance energy transfer from the Eu-chelate to the streptavidine-XL. Therefore, the fluorescence emissions at 620 nm and 665 nm after excitation at 350 nm were measured in a TR-FRET reader, e.g. a Rubystar (BMG Labtechnologies, Offenburg, Germany) or a Viewlux (Perkin-Elmer). The ratio of the emissions at 665 nm and at […] was taken as the measure for the amount of phosphorylated substrate. The data were normalised (enzyme reaction without inhibitor=0% inhibition, all other assay components but no enzyme=100% inhibition).
(In general: TR-FRET usually uses a lanthanide donor and a delayed reading to cut background.)

Experiment [2] concerns the target T1, MKNK1. The experiment in a line: MKNK1 kinase high ATP assay (TR-FRET-based). It counts as biochemical. The settings on record: 2 mM ATP, 15 min preincubation. On the procedure: MKNK1 Kinase High ATP Assay
MKNK1-inhibitory activity at high ATP of compounds of the present invention after their preincubation with MKNK1 was quantified employing the TR-FRET-based MKNK1 high ATP assay as described in the following paragraphs.
A recombinant fusion protein of Glutathione-S-Transferase (GST, N-terminally) and human full-length MKNK1 (amino acids 1-424 and T344D of accession number BAA 19885.1), expressed in insect cells using baculovirus expression system and purified via glutathione sepharose affinity chromatography, was purchased from Carna Biosciences (product no 02-145) and used as enzyme. As substrate for the kinase reaction the biotinylated peptide biotin-Ahx-IKKRKLTRRKSLKG (C-terminus in amide form) was used, which can be purchased e.g. from the company Biosyntan (Berlin-Buch, Germany).
For the assay 50 nL of a 100 fold concentrated solution of the test compound in DMSO was pipetted into a black low volume 384 well microtiter plate (Greiner Bio-One, Frickenhausen, Germany), 2 μL of a solution of MKNK1 in aqueous assay buffer [50 mM HEPES pH 7.5, 5 mM magnesium chloride, 1.0 mM dithiothreitol, 0.005% (v/v) Nonidet-P40 (Sigma)] was added and the mixture was incubated for 15 min at 22° C. to allow pre-binding of the test compounds to the enzyme before the start of the kinase reaction. Then the kinase reaction was started by the addition of 3 μL of a solution of adenosine-tri-phosphate (ATP, 3.3 mM=>final conc. in the 5 μL assay volume is 2 mM) and substrate (0.1 μM=>final conc. in the 5 μL assay volume is 0.06 μM) in assay buffer and the resulting mixture was incubated for a reaction time of 30 min at 22° C. The concentration of MKNK1 was adjusted depending of the activity of the enzyme lot and was chosen appropriate to have the assay in the linear range, typical concentrations were in the range of 0.003 μg/mL. The reaction was stopped by the addition of 5 μL of a solution of TR-FRET detection reagents (5 nM streptavidine-XL665 [Cisbio Bioassays, Codolet, France] and 1 nM anti-ribosomal protein S6 (pSer236)-antibody from Invitrogen [#44921G] and 1 nM LANCE EU-W1024 labeled ProteinG [Perkin-Elmer, product no. AD0071]) in an aqueous EDTA-solution (100 mM EDTA, 0.1% (w/v) bovine serum albumin in 50 mM HEPES pH 7.5).
as §1

T1 sequence (Q9BUB5 1-424 isoform Q9BUB5-2 T344D): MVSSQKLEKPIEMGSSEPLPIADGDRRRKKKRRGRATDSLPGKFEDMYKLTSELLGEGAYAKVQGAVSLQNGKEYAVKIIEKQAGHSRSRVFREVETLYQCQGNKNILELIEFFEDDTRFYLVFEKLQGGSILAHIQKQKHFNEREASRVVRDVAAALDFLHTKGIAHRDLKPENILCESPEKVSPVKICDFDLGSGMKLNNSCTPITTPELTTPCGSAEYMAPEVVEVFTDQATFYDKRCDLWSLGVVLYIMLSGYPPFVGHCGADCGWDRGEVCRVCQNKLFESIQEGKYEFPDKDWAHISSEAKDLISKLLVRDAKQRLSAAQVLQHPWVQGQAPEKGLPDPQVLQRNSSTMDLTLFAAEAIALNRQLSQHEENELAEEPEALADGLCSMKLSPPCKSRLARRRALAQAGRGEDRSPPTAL

Consider `CN1CCN(c2nccc3oc(-c4cnc5ccc(OCCCS(C)(=O)=O)nn45)cc23)CC1` [III-43, 3-[4-(4-Methylpiperazin-1-yl)furo[3,2-c]pyridin-2-yl]-6-[3-(methylsulfonyl)-propoxy]imidazo[1,2-b]pyridazine], for which the IC50 – broadly, the midpoint of a concentration-inhibition curve – in experiment [1] (Table 1c) turned out to be 5.7 nM; in experiment [2] (Table 2c), 5.3 nM. In the same order, the values of `C[C@H](N)COc1ccc2ncc(-c3cc4c(N5CCN(C(C)(C)C)CC5)nccc4o3)n2n1` [III-116, (2S)-1-({3-[4-(4-tert-butylpiperazin-1-yl)furo[3,2-c]pyridin-2-yl]imidazo[1,2-b]pyridazin-6-yl}oxy)propan-2-amine] are 27 nM and 114 nM.

Consider `O=C1CCCN1CCCOc1ccc2ncc(-c3cc4ccccc4o3)n2n1` [Example I-22, 1-(3-{[3-(1-Benzofuran-2-yl)imidazo[1,2-b]pyridazin-6-yl]oxy}propyl)pyrrolidin-2-one], for which the IC50 in experiment [1] (Table 1a) was found to be 12.6 nM; in experiment [2] (Table 2a) it was 18.6 nM. For `CCN(CCOC)c1nccc2oc(-c3cnc4ccc(OC[C@@H]5COCCN5)nn34)cc12` [III-35, N-Ethyl-N-(2-methoxyethyl)-2-{6-[(3S)-morpholin-3-ylmethoxy]imidazo[1,2-b]pyridazin-3-yl}furo[3,2-c]pyridin-4-amine], the values for the IC50 in experiment [1] (Table 1c) and in experiment [2] (Table 2c) were 1 nM and 0.9 nM, respectively. In the same order, the values of `CN(C)C1CCN(c2nccc3oc(-c4cnc5ccc(OCCCS(C)(=O)=O)nn45)cc23)CC1` [III-55, N,N-Dimethyl-1-(2-{6-[3-(methylsulfonyl)propoxy]imidazo[1,2-b]pyridazin-3-yl}furo[3,2-c]pyridin-4-yl)piperidin-4-amine] are 3.7 nM and 7.8 nM. As to `CC1(C)CN(c2nccc3oc(-c4cnc5ccc(OC[C@H]6CCC(=O)N6)nn45)cc23)CCO1` [III-142, (5R)-5-[({3-[4-(2,2-dimethylmorpholin-4-yl)furo[3,2-c]pyridin-2-yl]imidazo[1,2-b]pyridazin-6-yl}oxy)methyl]pyrrolidin-2-one], the values for the IC50 in experiment [1] (Table 1c) and in experiment [2] (Table 2c) were 1.6 nM and 0.5 nM, respectively. For `COCC(=O)NC[C@H](Oc1ccc2ncc(-c3cc4ccccc4o3)n2n1)c1cccnc1` [Example I-30, N-[(2R)-2-{[3-(1-Benzofuran-2-yl)imidazo[1,2-b]pyridazin-6-yl]oxy}-2-(pyridin-3-yl)ethyl]-2-methoxyacetamide], the values for the IC50 in experiment [1] (Table 1a) and in experiment [2] (Table 2a) were 10.3 nM and 34.8 nM, respectively. In the same order, the values of `NC(=O)C(Oc1ccc2ncc(-c3cc4ccccc4o3)n2n1)c1cccnc1` (centres unmarked) [Example I-39, 2-{[3-(1-Benzofuran-2-yl)imidazo[1,2-b]pyridazin-6-yl]oxy}-2-(pyridin-3-yl)acetamide] are 55.2 nM and 77.7 nM. With `O=C(c1ccon1)N1CCC[C@H]1CCOc1ccc2ncc(-c3cc4ccccc4o3)n2n1` [Example I-55, [(2S)-2-(2-{[3-(1-Benzofuran-2-yl)imidazo[1,2-b]-pyridazin-6-yl]oxy}ethyl)pyrrolidin-1-yl](1,2-oxazol-3-yl)methanone], the IC50 in experiment [1] (Table 1a) turned out to be 2.1 nM; in experiment [2] (Table 2a), 3.8 nM. Take `O=C(c1ccco1)N1CCC[C@H]1CCOc1ccc2ncc(-c3cc4ccccc4o3)n2n1` [Example I-49, [(2S)-2-(2-{[3-(1-Benzofuran-2-yl)imidazo[1,2-b]-pyridazin-6-yl]oxy}ethyl)pyrrolidin-1-yl](furan-2-yl)methanone]: the values for the IC50 in experiment [1] (Table 1a) and in experiment [2] (Table 2a) were 1.1 nM and 2.4 nM, respectively. With `CN1CCC(N(C)c2nccc3oc(-c4cnc5ccc(O[C@H]6C[C@H](N)C6)nn45)cc23)CC1` [III-100, 2-{6-[(trans-3-Aminocyclobutyl)oxy]imidazo[1,2-b]pyridazin-3-yl}-N-methyl-N-(1-methylpiperidin-4-yl)furo[3,2-c]pyridin-4-amine], the IC50 in experiment [1] (Table 1c) was 5.7 nM; in experiment [2] (Table 2c) it was 45.8 nM.

Take `CC(=O)NCCOc1ccc2ncc(-c3cc4ccccc4o3)n2n1` [Example I-28, N-(2-{[3-(1-Benzofuran-2-yl)imidazo[1,2-b]pyridazin-6-yl]oxy}ethyl)acetamide]: the IC50 is 9.1 nM in experiment [1] (Table 1a) and 29.8 nM in experiment [2] (Table 2a). As for `O=C1CC[C@@H](COc2ccc3ncc(-c4cc5ccccc5o4)n3n2)N1` [Example I-7, (5S)-5-({[3-(1-Benzofuran-2-yl)imidazo[1,2-b]pyridazin-6-yl]oxy}methyl)-pyrrolidin-2-one], the IC50 was 3.1 nM in experiment [1] (Table 1a) and 9.2 nM in experiment [2] (Table 2a). As to `COCCN(C)c1nccc2oc(-c3cnc4ccc(O[C@H](C)CN)nn34)cc12` [III-34, 2-(6-{[(2R)-1-Aminopropan-2-yl]oxy}imidazo[1,2-b]pyridazin-3-yl)-N-(2-methoxyethyl)-N-methylfuro[3,2-c]pyridin-4-amine], the IC50 worked out at 3.5 nM in experiment [1] (Table 1c) and 7.4 nM in experiment [2] (Table 2c).

With `CC(=O)NC[C@H](Oc1ccc2ncc(-c3cc4ccccc4o3)n2n1)c1cccnc1` [Example I-35, N-[(2R)-2-{[3-(1-Benzofuran-2-yl)imidazo[1,2-b]pyridazin-6-yl]oxy}-2-(pyridin-3-yl)ethyl]acetamide], the IC50 in experiment [1] (Table 1a) is 17.9 nM; in experiment [2] (Table 2a) it was 47.8 nM. In the case of `C[C@H]1CN(c2cccc3oc(-c4cnc5ccc(OC[C@H]6CCC(=O)N6)nn45)cc23)CCO1` [II-27, (5R)-5-{[(3-{4-[(2S)-2-methylmorpholin-4-yl]-1-benzofuran-2-yl}imidazo[1,2-b]pyridazin-6-yl)oxy]methyl}pyrrolidin-2-one], the IC50 in experiment [1] (Table 1b) came to 2.2 nM; in experiment [2] (Table 2b) it was 5.7 nM. `C[C@@H]1CNCCN1c1cccc2oc(-c3cnc4ccc(OC[C@@H]5CCC(=O)N5)nn34)cc12` [II-62, (5S)-5-{[(3-{4-[(2R)-2-methylpiperazin-1-yl]-1-benzofuran-2-yl}imidazo[1,2-b]pyridazin-6-yl)oxy]methyl}pyrrolidin-2-one] gave an IC50 in experiment [1] (Table 1b) of 5.1 nM. The compound `CC1(C)CN(c2cccc3oc(-c4cnc5ccc(O[C@H]6C[C@H](N)C6)nn45)cc23)CCO1` [II-66, trans-3-({3-[4-(2,2-dimethylmorpholin-4-yl)-1-benzofuran-2-yl]imidazo[1,2-b]pyridazin-6-yl}oxy)cyclobutanamine] gave an IC50 in experiment [1] (Table 1b) of 27.3 nM.

Regarding `C[C@@H]1CNCCN1c1cccc2oc(-c3cnc4ccc(OCC(F)(F)F)nn34)cc12` [II-64, 3-{4-[(2R)-2-methylpiperazin-1-yl]-1-benzofuran-2-yl}-6-(2,2,2-trifluoroethoxy)im-idazo[1,2-b]pyridazine], the IC50 in experiment [1] (Table 1b) came out at 9.3 nM.
